From patent publication US20070099915A1, “INHIBITORS OF THE HIV INTEGRASE ENZYME” (PFIZER INC., priority 2005, published 2007)
Where two headings read alike, the source gives them in different places.

Tests used:
[1] = test system: HIV-1 RF virus in CEM-SS cells; test: HIV-1 cell protection assay (XTT dye reduction); assay type: cell-based; conditions: Human immunodeficiency virus 1, 144 h; RF strain of HIV-1, CEM-SS cells, XTT read-out after six days; read-out: EC50
Procedure: Six days later, 50 μl of XTT solution (1 mg/ml XTT tetrazolium and 20 nM phenazine methosulfate) were added to the wells and the plates were reincubated for four hours. Viability, as determined by the amount of XTT formazan produced, was quantified spectrophotometrically by absorbance at 450 nm.
Data from CPE assays were expressed as the percent of formazan produced in compound-treated cells compared to formazan produced in wells of uninfected, compound-free cells. […] The 50% cytotoxicity concentration (CC50) was calculated as the concentration of compound that decreased the percentage of formazan produced in uninfected, compound-treated cells to 50% of that produced in uninfected, compound-free cells. The therapeutic index was calculated by dividing the cytotoxicity (CC50) by the antiviral activity (EC50).

[2] = target: T1, Full-length wild type HIV-1 integrase (SF1) (Human immunodeficiency virus type 1 group M subtype B, UniProt P04585); test: Integrase strand-transfer scintillation proximity assay; assay type: biochemical
T1 construct: made in house; host or cells: E. coli BL21 (DE3)
From the text: The annealed product represents preprocessed viral ds-DNA derived from the LTR U5 sequence of the viral genome. A ds-DNA control to test for non-specific interactions was made using a 3′ di-deoxy derivative of oligonucleotide #1 annealed to oligonucleotide #2. The CA overhang at the 5′ end of the non-biotinylated strand of the ds-DNA was created artificially by using a complimentary DNA oligonucleotide shortened by 2 base pairs. This configuration eliminates the requisite 3′ processing step of the integrase enzyme prior to the strand-transfer mechanism.
The annealed product had overhanging 3′ ends of poly(dA). […] The radiolabeled product was purified using a NENSORB cartridge and stored in stabilized aqueous solution (PerkinElmer).
Reagents: Streptavidin-coated polyvinyltoluene (PVT) SPA beads were purchased from Amersham Biosciences (Piscataway, N.J.). Cesium chloride was purchased from Shelton Scientific, Inc. (Shelton, Conn.). White, polystyrene, flat-bottom, non-binding surface, 96-well plates were purchased from Corning. All other buffer components were purchased from Sigma (St. Louis, Mo.) unless otherwise indicated.
Enzyme Construction: Full-length wild type HIV-1 integrase (SF1) sequence (amino acids 1-289) was constructed in a pET24a vector (Novagen, Madison, Wis.).
Enzyme Purification: Full length wild-type HIV Integrase was expressed in E. coli BL21 (DE3) cells and induced with 1 mM isopropyl-1 thio-β-D-galactopyranoside (IPTG) when cells reached an optical density between 0.8-1.0 at 600 nm. Cells were lysed by microfluidation in 50 mM HEPES pH 7.0, 75 mM NaCl, 5 mM DTT, 1 mM 4-(2-Aminoethyl)benzenesulfonylfluoride HCl (AEBSF). Lysate was then centrifuged 20 minutes at 11 k rpm in GSA rotor in Sorvall RC-5B at 4° C. Supernant was discarded and pellet resuspended in 50 mM HEPES pH 7.0, 750 mM NaCl, 5 mM DTT, 1 mM AEBSF and homogenized in a 40 mL Dounce homogenizer for 20 minutes on ice. Homogenate was then centrifuged 20 minutes at 11 k rpm in SS34 rotor in Sorvall RC-5B at 4° C. Supernant was discarded and pellet resuspended in 50 mM HEPES pH 7.0, 750 mM NaCl, 25 mM CHAPS, 5 mM DTT, 1 mM AEBSF. Preparation was then centrifuged 20 minutes at 11 k rpm in SS34 rotor in Sorvall RC-5B at 4° C.
Supernant was then diluted 1:1 with 50 mM HEPES pH 7.0, 25 mM CHAPS, 1 mM DTT, 1 mM AEBSF and loaded onto a Q-Sepharose column pre-equilibrated with 50 mM HEPES, pH 7.0, 375 mM NaCl, 25 mM CHAPS, 1 mM DTT, 1 mM AEBSF. The flow through peak was collected and NaCl diluted to 0.1 M with 50 mM HEPES pH 7.0, 25 mM CHAPS, 1 mM DTT, 0.5 mM AEBSF and loaded onto a SP-Sepharose column pre-equilibrated with 50 mM HEPES pH 7.0, 100 mM NaCl, 25 mM CHAPS, 1 mM DTT, 0.5 mM AEBSF. After washing the column with the equilibration buffer, a 100 to 400 mM NaCl gradient was run. The eluted integrase was concentrated and run on a S-300 gel diffusion column using 50 mM HEPES pH 7.0, 500 mM NaCl, 25 mM CHAPS, 1 mM DTT, 0.5 mM AEBSF. […] All columns were run in a 4° C. cold room.
Viral DNA Bead Preparation: Streptavidin-coated SPA beads were suspended to 20 mg/mL in 25 mM 3-morpholinopropanesulfonic acid (MOPS) (pH 7.2) and 1.0% NaN3. Biotinylated viral DNA was bound to the hydrated SPA beads in a batch process by combining […] of ds-DNA to 1 mg of suspended SPA beads (10 μL of 50 μM viral DNA to 1 mL of 20 mg/mL SPA beads). The mixture was incubated at 22° C. for a minimum of 20 min. with occasional mixing followed by centrifugation at 2500 rpm for 10 min.

[3] = strand-transfer SPA, 246 nM integrase, 50 nM host DNA, 37° C., 50 min, read-out: IC50

Row | SMILES | EC50 [1] [nM] | IC50 [2, 3] [nM] | IC50 [2] [nM]
1 | O=c1c2ncc3c(c(-c4ccccn4)cn3Cc3ccc(F)cc3)c2ccn1O [Example 9, 3-(4-fluorobenzyl)-7-hydroxy-1-pyridin-2-yl-3,7-dihydro-6H-pyrrolo[2,3-c]-1,7-naphthyridin-6-one] | 2 | 29 | 
2 | COC(C)(C)CCc1cn(Cc2ccc(F)cc2)c2cnc3c(c12)CCN(O)C3=O [Example 121, 3-(4-fluorobenzyl)-7-hydroxy-1-(3-methoxy-3-methylbutyl)-3,7,8,9-tetrahydro-6H-pyrrolo[2,3-c]-1,7-naphthyridin-6-one] | 0.4 | 14 | 
3 | CN(Cc1cn(Cc2ccc(F)cc2)c2cnc3c(c12)CCN(O)C3=O)C1CCCOC1 (stereo not drawn) [Example 50, 3-(4-fluorobenzyl)-7-hydroxy-1-{[methyl(tetrahydro-2H-pyran-3-yl)amino]methyl}-3,7,8,9-tetrahydro-6H-pyrrolo[2,3-c]-1,7-naphthyridin-6-one] | 1.8 | 11.9 | 
4 | Cc1c(CN2CCOCC2)c2c(ncc3c2ccn3Cc2ccc(F)cc2)c(=O)n1O [Example 44, 3-(4-fluorobenzyl)-7-hydroxy-8-methyl-9-(morpholin-4-ylmethyl)-3,7-dihydro-6H-pyrrolo[2,3-c]-1,7-naphthyridin-6-one] | 0.45 |  | 9.07
5 | O=C1c2ncc3c(c(COCC(O)CO)cn3Cc3ccc(F)cc3)c2CCN1O (stereo in doubt) [Example 24, 1-({[(2S)-2,3-dihydroxypropyl]oxy}methyl)-3-(4-fluorobenzyl)-7-hydroxy-3,7,8,9-tetrahydro-6H-pyrrolo[2 3-c]-1,7-naphthyridin-6-one] | 4 | 14 | 
6 | O=C1c2ncc3c(c(CCN4CCC(F)(F)C4)cn3Cc3ccc(F)cc3)c2CCN1O [Example 109, 3-(4-fluorobenzyl)-1-(2-(3,3-difluoropyrrolidin-1-yl)ethyl)-7-hydroxy-8,9-dihydro-3H-pyrrolo[2,3-c][1,7]naphthyridin-6(7H)-one] | 1 | 14 | 
7 | CN(CCc1cn(Cc2ccc(F)cc2)c2cnc3c(c12)CCN(O)C3=O)CC(F)(F)F [Example 113, 3-(4-fluorobenzyl)-7-hydroxy-1-{2-[methyl(2,2,2-trifluoroethyl)amino]ethyl}-3,7,8,9-tetrahydro-6H-pyrrolo[2,3-c]-1,7-naphthyridin-6-one] | 2 | 15 | 
8 | CN1CCN(Cc2cn(Cc3ccc(F)cc3)c3cnc4c(c23)CCN(O)C4=O)CC1 [Example 29, 3-(4-fluorobenzyl)-7-hydroxy-1-[(4-methylpiperazin-1-yl)methyl]-3,7,8,9-tetrahydro-6H-pyrrolo[2,3-c]-1,7-naphthyridin-6-one] | 3 | 28 | 
9 | COCCN(C)CCc1cn(Cc2ccc(F)cc2)c2cnc3c(c12)CCN(O)C3=O [Example 118, 3-(4-fluorobenzyl)-7-hydroxy-1-{2-[(2-methoxyethyl)(methyl)amino]ethyl}-3,7,8,9-tetrahydro-6H-pyrrolo[2,3-c]-1,7-naphthyridin-6-one] | 13 | 20 | 
10 | O=C1c2ncc3c(c(CNC4CCOCC4)cn3Cc3ccc(F)cc3)c2CCN1O [Example 69, 3-(4-fluorobenzyl)-7-hydroxy-1-[(tetrahydro-2H-pyran-4-ylamino)methyl]-3,7,8,9-tetrahydro-6H-pyrrolo[2,3-c]-1,7-naphthyridin-6-one] | 27 | 20 | 
11 | Cc1cccc(COCc2cn(Cc3ccc(F)cc3)c3cnc4c(c23)CCN(O)C4=O)n1 [Example 78, 3-(4-fluorobenzyl)-7-hydroxy-1-{[(6-methylpyridin-2-yl)methoxy]methyl}-3,7,8,9-tetrahydro-6H-pyrrolo[2,3-c]-1,7-naphthyridin-6-one] | 0.6 | 11 | 
12 | N#Cc1ccc(Cn2ccc3c4c(ncc32)C(=O)N(O)CC4)cc1 [Example 86, 4-[(7-hydroxy-6-oxo-6,7,8,9-tetrahydro-3H-pyrrolo[2,3-c]-1,7-naphthyridin-3-yl)methyl]benzonitrile] | 27 | 108 | 
